Test results as given in patent publication US8461183B2, “PPAR agonist compounds, preparation and uses” (Genfit, priority 2008, dated 2013).

Tests used:
Format in all cases: cell-based
[1] = target: T1, hPPARγ (Homo sapiens, UniProt P37231); assay: Gal4-hPPARγ chimera transactivation (luciferase) in COS-7 cells; settings: 24 hours; for EC50: luciferase, read-out: PPARγ EC50; for Emax: read-out: PPARγ TOP % (maximum activation)
T1 construct: corresponding to the DEF domains (structural elements of the promoter of the PPARs: D=hinge, EF=ligand fixation domain and AF2 fixation site); expressed in transfected cells; host or cells: COS-7 (monkey kidney fibroblasts)
T1 sequence (P37231 238-503 limits assumed): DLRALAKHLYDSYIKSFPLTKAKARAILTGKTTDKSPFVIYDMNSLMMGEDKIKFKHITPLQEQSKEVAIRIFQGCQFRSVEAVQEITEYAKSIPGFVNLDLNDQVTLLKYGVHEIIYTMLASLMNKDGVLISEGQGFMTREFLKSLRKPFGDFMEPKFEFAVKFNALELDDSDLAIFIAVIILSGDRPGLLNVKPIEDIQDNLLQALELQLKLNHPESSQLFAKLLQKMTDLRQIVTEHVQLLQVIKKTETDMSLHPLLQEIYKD
Experimental: (§1) Activation of PPARs is evaluated in vitro on a line of monkey kidney fibroblasts (COS-7) by measuring the transcriptional activity of chimeras consisting of the DNA binding domain of Gal4 transcription factor of yeast and of the ligand binding domain of the various PPARs of human origin (hPPAR).
(§2) The COS-7 cells are from ATCC and are cultivated in DMEM medium supplemented with 10% (vol/vol) of fetal calf serum, 1% of penicillin/streptomycin (Biochrom, AG), 1% of amino acids (Gibco) and 1% of sodium pyruvate (Gibco). The cells are incubated at 37° C. in a humid atmosphere containing 5% CO2.
(§3) The plasmids Gal4(RE)_TkpGL3, pGal4-hPPARα, pGal4-hPPARγ, pGal4-hPPARδ and pGal4-φ are described in the literature (Raspe E et al., 1999). The constructs pGal4-hPPARα, pGal4-hPPARγ and pGal4-hPPARδ were obtained by cloning, into the pGal4-φ vector, DNA fragments amplified by PCR corresponding to the DEF domains (structural elements of the promoter of the PPARs: D=hinge, EF=ligand fixation domain and AF2 fixation site) of the human nuclear receptors PPAα, PPARγ and PPARδ.
(§4) The adherent COS-7 cells are transfected with 40 μg of DNA per 225 cm^2 flask, with a pGal4-hPPAR/Gal4(RE)_TkpGL3 ratio of 1/10, in the presence of 10% of fetal calf serum. The cells are then detached and seeded in the absence of serum in 384-well plates (2×10^4 cells/well) then incubated for 4 hours at 37° C. The compounds are then diluted in a 96-well plate and then transferred to the 384-well plate. Activation with the test compounds is effected for a further 24 hours at 37° C. in the presence of 1% of synthetic serum Ultroser™ (Biosepra). These last 2 stages are automated by means of a Genesis Freedom 200™ station (Tecan). At the end of the experiment, the cells are lysed and the luciferase activity is determined using the Steady-Lite™ HTS (Perkin Elmer) according to the supplier's recommendations.
(§5) The test data are summarized in Table 8-1 below, which presents, for each compound, the values of maximum activation (TOP %) and the EC50 values measured for each isoform of PPAR.

[2] = target: T2, hPPARα (Homo sapiens, UniProt Q07869); assay: Gal4-hPPARα chimera transactivation (luciferase) in COS-7 cells; settings: COS-7 cells, Gal4-hPPARα, 24 hours; for EC50: luciferase, read-out: PPARα EC50; for Emax: read-out: PPARα TOP % (maximum activation)
T2 construct: corresponding to the DEF domains (structural elements of the promoter of the PPARs: D=hinge, EF=ligand fixation domain and AF2 fixation site); expressed in transfected cells; host or cells: COS-7 (monkey kidney fibroblasts)
T2 sequence (Q07869 239-466 limits assumed): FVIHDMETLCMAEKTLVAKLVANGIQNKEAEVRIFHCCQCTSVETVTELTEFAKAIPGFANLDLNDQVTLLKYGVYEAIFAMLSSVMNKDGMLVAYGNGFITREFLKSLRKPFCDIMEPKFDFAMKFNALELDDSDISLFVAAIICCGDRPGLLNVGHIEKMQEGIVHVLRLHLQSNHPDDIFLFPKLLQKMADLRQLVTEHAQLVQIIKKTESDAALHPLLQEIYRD
Experimental: as §1, §2, §3, §4
The test data are summarized in Table 8-1 below, which presents, for each compound, the values of maximum activation (TOP %) and the EC50 values measured for each isoform of PPAR. The values of maximum activation are expressed in percentages relative to the maximum activations obtained with reference agonists: fenofibric acid for PPARα, rosiglitazone for PPARγ and 2-methyl-4-((4-methyl-2-(4-trifluoromethylphenyl)-1,3-thiazol-5-yl)-methylsulfanyl)phenoxyacetic acid (also called GW501516) for PPARδ.

[3] = target: T3, hPPARδ (Homo sapiens, UniProt Q03181); assay: Gal4-hPPARδ chimera transactivation (luciferase) in COS-7 cells; settings: COS-7 cells, Gal4-hPPARδ, 24 hours; for EC50: luciferase, read-out: PPARδ EC50; for Emax: read-out: PPARδ TOP % (maximum activation)
T3 construct: corresponding to the DEF domains (structural elements of the promoter of the PPARs: D=hinge, EF=ligand fixation domain and AF2 fixation site); expressed in transfected cells; host or cells: COS-7 (monkey kidney fibroblasts)
T3 sequence (Q03181 211-439 limits assumed): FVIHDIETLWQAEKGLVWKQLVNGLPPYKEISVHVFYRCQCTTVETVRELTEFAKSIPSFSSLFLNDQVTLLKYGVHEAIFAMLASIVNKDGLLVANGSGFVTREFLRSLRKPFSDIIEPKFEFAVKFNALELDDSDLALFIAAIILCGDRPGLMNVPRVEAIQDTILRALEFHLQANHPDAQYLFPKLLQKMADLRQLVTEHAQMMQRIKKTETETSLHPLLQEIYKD
Experimental: as §1, §2, §3, §4, §5

[4] = relative to maximum activation obtained with rosiglitazone
[5] = relative to maximum activation obtained with fenofibric acid
[6] = relative to maximum activation obtained with GW501516

Molecule | EC50 [1] | Emax [1, 4] | EC50 [2] | Emax [2, 5] | EC50 [3] | Emax [3, 6] | PPARγ TOP % (maximum activation) [1, 4] | PPARα TOP % (maximum activation) [2, 5] | PPARδ TOP % (maximum activation) [3, 6]
CC(C)(C)Oc1nc(-c2ccccc2)ccc1COc1ccc(OC(C)(C)C(=O)O)cc1 [Cpd 6, 2-(4-((2-tert-butyloxy-6-phenylpyridin-3-yl)methoxy)phenoxy)-2-methyl-propanoic acid] | 11800 nM | 17.3% | 5430 nM | 30.3% | 489 nM | 70.7% | – | – | –
3-(4-(((2-methoxy-6-furylpyridin-3-yl)methyl)amino)phenyl)propanoic acid [Cpd 31] | 3360 nM | – | 2490 nM | – | 16300 nM | – | 62.35% | 49.52% | 86.72%
CC(C)(C)Oc1nc(-c2ccccc2)ccc1CNc1ccc(OCC(=O)O)cc1 [Cpd 8] | 12200 nM | 13.4% | 7920 nM | 21.9% | 2110 nM | 72.4% | – | – | –
COc1nc(-c2ccccc2)ccc1CNc1ccc(SC(F)(F)C(=O)O)cc1 [Cpd 27, 2-(4-(((2-methoxy-6-phenylpyridin-3-yl)methyl)amino)phenylthio)-2,2-difluoroethanoic acid] | 10600 nM | 98.7% | 3640 nM | 99.8% | 41100 nM | 72.9% | – | – | –
COc1nc(-c2ccccc2)c(-c2ccccc2)cc1CNc1ccc(SCC(=O)O)cc1 [Cpd 28, 2-(4-(((2-methoxy-5,6-diphenylpyridin-3-yl)methyl)amino)phenylthio)ethanoic acid] | 11300 nM | 45% | 1740 nM | 55.4% | 25200 nM | 49.1% | – | – | –
O=C(O)COc1ccc(OCc2ccc(-c3ccccc3)nc2Sc2ccccc2)cc1 [Cpd 25, 2-(4-((2-phenylthio-6-(phenyl)pyridin-3-yl)methoxy)phenoxy)ethanoic acid] | 8290 nM | 38.3% | 6960 nM | 53.9% | 6380 nM | 71% | – | – | –
O=C(O)COc1ccc(OCc2ccc(-c3ccccc3)nc2N2CCCCC2)cc1 [Cpd 20, 2-(4-((6-phenyl-2-(piperidin-1-yl)pyridin-3-yl)methoxy)phenoxy)ethanoic acid] | 30200 nM | 43% | 14300 nM | 34.2% | 5260 nM | 87.7% | – | – | –
COc1nc(OC)c(-c2ccccc2)cc1CNc1ccc(CCC(=O)O)cc1 [Cpd 48, 3-(4-(((2,6-dimethoxy-5-phenylpyridin-3-yl)methyl)amino)phenyl)propanoic acid] | 9570 nM | 58.2% | 26400 nM | 35.9% | 16700 nM | 68.1% | – | – | –

Now those with a lower EC50 [1], led by results:

EC50 [1] | Emax [1, 4] | EC50 [2] | Emax [2, 5] | EC50 [3] | Emax [3, 6] | PPARγ TOP % (maximum activation) [1, 4] | PPARα TOP % (maximum activation) [2, 5] | PPARδ TOP % (maximum activation) [3, 6] | Molecule
2640 nM | 44.9% | 195 nM | 78.1% | 2360 nM | 84.2% | – | – | – | COc1nc(-c2ccccc2)ccc1CNc1ccc(OC(C)(C)C(=O)O)cc1 [Cpd 12, 2-(4-(((2-methoxy-6-phenylpyridin-3-yl)methyl)amino)phenoxy)-2-methyl-propanoic acid]
583 nM | 75.6% | 9 nM | 66.8% | 992 nM | 99.6% | – | – | – | CCCCCCOc1nc(-c2ccccc2)ccc1COc1ccc(OC(C)(C)C(=O)O)cc1 [Cpd 17, 2-(4-((2-hexyloxy-6-phenylpyridin-3-yl)methoxy)phenoxy)-2-methyl-propanoic acid]
2390 nM | 79.4% | 6430 nM | 43.2% | 3360 nM | 97.3% | – | – | – | COc1nc(-c2ccccc2)ccc1CNc1ccc(C(C)CC(=O)O)cc1 (centres unmarked) [Cpd 45, 3-(4-(((2-methoxy-6-phenylpyridin-3-yl)methyl)amino)phenyl)butanoic acid]
955 nM | 87.2% | 165 nM | 66.7% | 80 nM | 107% | – | – | – | COc1nc(-c2cccc(C(F)(F)F)c2)ccc1CNc1ccc(CCC(=O)O)cc1 [Cpd 40, 3-(4-(((2-methoxy-6-(3-(trifluoromethyl)phenyl)pyridin-3-yl)methyl)amino)-phenyl)propanoic acid]
2640 nM | 72.2% | 929 nM | 55.5% | 2380 nM | 80.6% | – | – | – | COc1cc(CCC(=O)O)ccc1NCc1ccc(-c2ccccc2)nc1OC [Cpd 44, 3-(3-methoxy-4-(((2-methoxy-6-phenylpyridin-3-yl)methyl)amino)-phenyl)-propanoic acid]
1940 nM | 100% | 175 nM | 52.2% | 1390 nM | 95.3% | – | – | – | COc1nc(-c2ccc(-c3ccccc3)cc2)ccc1CNc1ccc(CCC(=O)O)cc1 [Cpd 39, 3-(4-(((2-methoxy-6-(parabiphenyl)pyridin-3-yl)methyl)amino)phenyl)-propanoic acid]
1920 nM | 63.7% | 771 nM | 46.8% | 770 nM | 103% | – | – | – | COc1ncc(-c2ccc3ccccc3c2)cc1CNc1ccc(CCC(=O)O)cc1 [Cpd 50, 3-(4-(((2-methoxy-5-(naphthalen-2-yl)pyridin-3-yl)methyl)amino)phenyl)-propanoic acid]
1940 nM | 69.4% | 622 nM | 60% | 28 nM | 107% | – | – | – | COc1ncc(-c2ccc(C(F)(F)F)cc2)cc1CNc1ccc(CCC(=O)O)cc1 [Cpd 46, 3-(4-(((2-methoxy-5-(4-(trifluoromethyl)phenyl)pyridin-3-yl)methyl)amino)phenyl)propanoic acid]
2760 nM | 54.8% | 13700 nM | 34.3% | 19800 nM | 16.1% | – | – | – | CC#CC(CC(=O)O)c1ccc(OCc2cc(-c3ccccc3)cnc2OC)cc1 (centres unmarked) [Cpd 52, 3-(4-((2-methoxy-5-phenylpyridin-3-yl)methoxy)phenyl)hex-4-ynoic acid]
1430 nM | 51.5% | – | 70.2% | 276 nM | 100% | – | – | – | COc1nc(-c2ccc(C(F)(F)F)cc2)ccc1COc1ccc(OC(C)(C)C(=O)O)cc1 [Cpd 21, 2-(4-((2-methoxy-6-(4-(trifluoromethyl)phenyl)pyridin-3-yl)methoxy)-phenoxy)-2-methylpropanoic acid]
